Experimental data taken from paper PMC6753678, “Fueling Open Innovation for Malaria Transmission-Blocking Drugs: Hundreds of Molecules Targeting Early Parasite Mosquito Stages” (Frontiers in Microbiology, 2019).
Where two headings read alike, the source gives them in different places.

What was measured:
HepG2 cells [1] = test: HepG2 cytotoxicity assay
Procedure, shortened: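 Here viability after a 48 h compound incubation (37°C, humidified 5% CO2) is measured by fluorescence and expressed as percent inhibition, with doxorubicin at 50 μM and DMSO as the bounding controls.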

[2] = system: P. falciparum late stage (stages IV-V) gametocytes; set-up: method as in Almela et al 2016; conditions: P. falciparum late stage gametocyte ATP assay, ref Almela et al 2016, read-out: Pf GCT ATP IC50, cited from earlier work
HepG2 cells [3] = conditions: ref Almela et al 2016, cited from earlier work
[4] = system: P. falciparum late stage (stages IV-V) gametocytes; test: P. falciparum late stage gametocyte ATP depletion assay (Pf GC-ATP); conditions: 1: YES, 0: NO
[5] = system: P. berghei ookinete development; conditions: primary screen at 1 μM
[6] = unified HepG2 value across the three screens
[7] = HepG2 data listed with Pf GCT ATP screen
[8] = >10-fold selectivity over cytotoxicity
[9] = HepG2 cytotoxicity unified across screens, >25 set to 25.00

Compound	Unified cytotox (HepG2 cells [1]; [6]) [µM]	IC50 [2] [nM]	HepG2 cytoxicity (HepG2 cells [3]; [7]) [µM]	Is compound selective in assay? Pf GC-ATP active? [4]	IC50 ([2]; TCAMS screen) [nM]	HepG2 cytoxicity (HepG2 cells [3]; reported with the Pf GCT ATP screen) [µM]	Is compound selective in assay? Pf GC-ATP active? [4, 8]	Unified cytotox (HepG2 cells [1]; [9]) [µM]	% inhibition, Replicate A [5] [%]	% inhibition, Replicate B [5] [%]
CC(C)c1ccc(NC(=S)NN=Cc2ccccn2)cc1 [TCMDC-125520]	12.80	10	12.8	1 (1: YES)						
COc1cccc(C(=O)NC(C=Cc2ccccc2)c2cc(Cl)c3cccnc3c2O)c1 (stereo not shown) [TCMDC-125550]		590	>25	1 (1: YES)						
O=[N+]([O-])c1ccc(C=NNc2nc(Nc3ccccc3)nc(Nc3ccccc3)n2)o1 [TCMDC-125802]	14.82	1310	14.82	1 (1: YES)						
Cc1cccnc1Nc1nc(-c2ccccn2)cs1 [TCMDC-125846]	3.02	100	3.02	1 (1: YES)						
COc1cccc(CCNCCCCCCNCCc2ccc(Cl)cc2)c1.Cl [TCMDC-131284]	6.10	530	6.1	1 (1: YES)						
CCNC1=NC2=C(CC(C(C)(C)C)CC2)C2(CCC(C(C)(C)C)CC2)S1.Cl (stereo not shown) [TCMDC-131288]	14.30	3000	14.3	0 (0: NO)						
CCN(CC)/C(=N\CCCCCC/N=C(\NC(=N)c1ccc(Cl)cc1)N(CC)CC)NC(=N)c1ccc(Cl)cc1 [TCMDC-131806]	43.60	840	43.6	1 (1: YES)						
CCN(CC)/C(=N\C(=N)NCCCCCCNC(=N)/N=C(\Nc1ccc(Cl)cc1)N(CC)CC)Nc1ccc(Cl)cc1 [TCMDC-131807]		370	>25	1 (1: YES)						
CCN(CC)/C(=N/C(=N)Nc1ccc(Cl)cc1)NCCCCCCCCN/C(=N\C(=N)Nc1ccc(Cl)cc1)N(CC)CC [TCMDC-131812]		1030	>25	1 (1: YES)						
CCN(CC)/C(=N/C(=N)NCc1ccc(Cl)cc1)NCCCCCCN/C(=N\C(=N)NCc1ccc(Cl)cc1)N(CC)CC [TCMDC-131817]		790	>25	1 (1: YES)						
CCOc1c(CCNCCCCNCCc2ccc3ccccc3c2OCC)ccc2ccccc12.CS(=O)(=O)O [TCMDC-137759]					170	<1.56	1 (1: YES)			
Cl.N=C(N)NN=Cc1c2ccccc2c(Cl)c2cc(Cl)ccc12 [TCMDC-137903]					2350		0 (0: NO)	7.50	53.67	40.83
CN1CCC(N(Cc2ccc(-c3ccc(Cl)cc3)cc2)C(=O)Cn2c(CCc3cccc(F)c3F)cc(=O)c3ccccc32)CC1.O=C(O)C(O)C(O)C(=O)O [TCMDC-141357]					3430		0 (0: NO)	6.70	22.22	55.97
CN(C)CCCNc1nccc(N(C)c2ccc(NC(=O)Nc3cc(C(F)(F)F)ccc3F)cc2)n1.O=C(O)C(F)(F)F [TCMDC-141633]					1000		1 (1: YES)	17.30		
O=C(Nc1cccc(Oc2ccccc2)c1)N[C@H]1CCN(Cc2ccc(OCCCN3CCCCC3)cc2)C1 [TCMDC-141785]					1130		0 (0: NO)	3.52		
Cc1ccc2nc(C)cc(N/N=C/c3ccc([N+](=O)[O-])cc3)c2c1 [TCMDC-142070]					9410		0 (0: NO)	0.19		
COc1ccc2c(=NN=Cc3ccc(OC)c4ccccc34)cc(C)[nH]c2c1 [TCMDC-142218]					770		1 (1: YES)	7.86		
Nc1cc(C=Cc2ccc([N+](=O)[O-])o2)nc2ccccc12 [TCMDC-142295]					200		1 (1: YES)	11.70		
Nc1cc(/C=C/c2ccc([N+](=O)[O-])s2)nc2ccccc12 [TCMDC-142296]					600		1 (1: YES)	7.60		
